The source made the active and inactive calls. No cut-off for these calls is given here.
Key:
[1] = system: Trachea; test: Inhibition of KCl-induced contraction in Sprague-Dawley rat trachea assessed as tracheal tension at 10^-5 mol/L (reference value: 2.16 to 2.59 g); format: functional
[2] = system: Trachea; test: Inhibition of Ach-induced contraction in Sprague-Dawley rat trachea assessed as tracheal tension at 10^-9 mol/L (reference value: 0.63 to 0.98g); format: functional
[3] = system: Trachea; test: Inhibition of KCl-induced contraction in Sprague-Dawley rat trachea assessed as tracheal tension at 10^-9 mol/L (reference value: 2.16 to 2.59 g); format: functional
[4] = system: Trachea; test: Inhibition of KCl-induced contraction in Sprague-Dawley rat trachea assessed as maximal diastolic rate at 10^-5 mol/L (reference value: 6 +/- 0.6%); format: functional; set-up: scale not given: the % may be the effect or the level left
[5] = system: Trachea; test: Inhibition of KCl-induced contraction in Sprague-Dawley rat trachea assessed as tracheal tension at 10^-4 mol/L (reference value: 2.16 to 2.59 g); format: functional
[6] = system: Trachea; test: Inhibition of Ach-induced contraction in Sprague-Dawley rat trachea assessed as maximal diastolic rate at 10^-9 mol/L (reference value: 12.7 +/- 2.8%); format: functional; set-up: scale not given: the % may be the effect or the level left
[7] = system: Trachea; test: Inhibition of Ach-induced contraction in Sprague-Dawley rat trachea assessed as maximal diastolic rate at 10^-7 mol/L (reference value: 14.2 +/- 2.3%); format: functional; set-up: scale not given: the % may be the effect or the level left
[8] = system: Trachea; test: Inhibition of KCl-induced contraction in Sprague-Dawley rat trachea assessed as maximal diastolic rate at 10^-8 mol/L (reference value: 7 +/- 0.3%); format: functional; set-up: scale not given: the % may be the effect or the level left
[9] = system: Trachea; test: Inhibition of Ach-induced contraction in Sprague-Dawley rat trachea assessed as tracheal tension at 10^-7 mol/L (reference value: 0.63 to 0.98 g); format: functional
[10] = system: Trachea; test: Inhibition of KCl-induced contraction in Sprague-Dawley rat trachea assessed as tracheal tension at 10^-6 mol/L (reference value: 2.16 to 2.59 g); format: functional
[11] = system: Trachea; test: Inhibition of Ach-induced contraction in Sprague-Dawley rat trachea at 100 umol/L; format: functional, tissue-based
[12] = system: Trachea; test: Inhibition of KCl-induced contraction in Sprague-Dawley rat trachea assessed as maximal diastolic rate at 10^-6 mol/L (reference value: 6 +/- 1.2%); format: functional; set-up: scale not given: the % may be the effect or the level left
[13] = system: Trachea; test: Inhibition of Ach-induced contraction in Sprague-Dawley rat trachea; format: functional, tissue-based
[14] = system: Trachea; test: Inhibition of Ach-induced contraction in Sprague-Dawley rat trachea assessed as maximal diastolic rate at 10^-5 mol/L (reference value: 15.9 +/- 2.6%); format: functional; set-up: scale not given: the % may be the effect or the level left
[15] = system: Trachea; test: Inhibition of Ach-induced contraction in Sprague-Dawley rat trachea assessed as tracheal tension at 10^-6 mol/L (reference value: 0.63 to 0.98 g); format: functional
[16] = system: Trachea; test: Inhibition of Ach-induced contraction in Sprague-Dawley rat trachea assessed as tracheal tension at 10^-4 mol/L (reference value: 0.63 to 0.98 g); format: functional
[17] = system: Trachea; test: Inhibition of Ach-induced contraction in Sprague-Dawley rat trachea assessed as maximal diastolic rate at 10^-4 mol/L (reference value: 15 +/- 4.2%); format: functional; set-up: scale not given: the % may be the effect or the level left
[18] = system: Trachea; test: Inhibition of Ach-induced contraction in Sprague-Dawley rat trachea assessed as maximal diastolic rate at 10^-8 mol/L (reference value: 14 +/- 1.8%); format: functional; set-up: scale not given: the % may be the effect or the level left
[19] = system: Trachea; test: Inhibition of Ach-induced contraction in Sprague-Dawley rat trachea assessed as tracheal tension at 10^-5 mol/L (reference value: 0.63 to 0.98 g); format: functional
[20] = system: Trachea; test: Inhibition of KCl-induced contraction in Sprague-Dawley rat trachea assessed as tracheal tension at 10^-7 mol/L (reference value: 2.16 to 2.59 g); format: functional
[21] = system: Trachea; test: Inhibition of KCl-induced contraction in Sprague-Dawley rat trachea assessed as maximal diastolic rate at 10^-9 mol/L (reference value: 5.9 +/- 1.8%); format: functional; set-up: scale not given: the % may be the effect or the level left
[22] = system: Trachea; test: Inhibition of Ach-induced contraction in Sprague-Dawley rat trachea assessed as maximal diastolic rate at 10^-6 mol/L (reference value: 15.9 +/- 3%); format: functional; set-up: scale not given: the % may be the effect or the level left
[23] = system: Trachea; test: Inhibition of KCl-induced contraction in Sprague-Dawley rat trachea assessed as maximal diastolic rate at 10^-4 mol/L (reference value: 6.6 +/- 0.3%); format: functional; set-up: scale not given: the % may be the effect or the level left
[24] = system: Trachea; test: Inhibition of KCl-induced contraction in Sprague-Dawley rat trachea assessed as tracheal tension at 10^-8 mol/L (reference value: 2.16 to 2.59 g); format: functional
[25] = system: Trachea; test: Inhibition of KCl-induced contraction in Sprague-Dawley rat trachea assessed as maximal diastolic rate at 10^-7 mol/L (reference value: 7 +/- 0.8%); format: functional; set-up: scale not given: the % may be the effect or the level left
[26] = system: Trachea; test: Inhibition of Ach-induced contraction in Sprague-Dawley rat trachea assessed as tracheal tension at 10^-8 mol/L (reference value: 0.63 to 0.98 g); format: functional
[27] = system: Trachea; test: Inhibition of Ach-induced contraction in Sprague-Dawley rat trachea at 1 to 100 umol/L; format: functional, tissue-based; details: read-out: pA2 (converted)

## C[C@@H]1CC[C@H]2N(C1)C[C@H]1[C@@H]3C[C@H]4[C@@H](CC(=O)[C@H]5C[C@@H](O)CC[C@@]54C)[C@@H]3CC[C@@H]1[C@]2(C)O
[1]
  Activity: 2.49 g
[2]
  Activity: 0.54 g
[3]
  Activity: 2.43 g
[4]
  Activity: 3.3%
[5]
  Activity: 2.48 g
[6]
  Activity: 15.8%
[7]
  Activity: 27.5%
[8]
  Activity: 5.2%
[9]
  Activity: 0.48 g
[10]
  Activity: 2.48 g
[11]
  inhibition: Active
[12]
  Activity: 3.6%
[13]
  EC50: 650 nM
[14]
  Activity: 34.3%
[15]
  Activity: 0.46 g
[16]
  Activity: 0.38 g
[17]
  Activity: 39.3%
[18]
  Activity: 20.6%
[19]
  Activity: 0.43 g
[20]
  Activity: 2.49 g
[21]
  Activity: 6.2%
[22]
  Activity: 30.4%
[23]
  Activity: 3.6%
[24]
  Activity: 2.46 g
[25]
  Activity: 3.2%
[26]
  Activity: 0.51 g
[27]
  Kb: 646 nM

Source: ChEMBL document CHEMBL3785034, “New isosteroidal alkaloids with tracheal relaxant effect from the bulbs of Fritillaria pallidiflora Schrenk” (Bioorg Med Chem Lett, 2016)
